In ChEMBL document CHEMBL1201862, “PubChem BioAssay data set” (2004):
Calls of active or inactive are those of the source.

Tests used:
[1] = MIN6 cell viability loss – mouse insulinoma, cytotoxicity control, dose response (AID 2122); assay type: functional;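 also: confirmatory high-throughput counterscreen run to flag cytotoxic compounds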
[2] = decrease of insulin promoter-GFP reporter – imaging, high-content screening, mouse beta cells (AID 1628); assay type: functional; conditions: MIN6
Streptococcus = experiment: GAS UMAA2166 growth inhibition – luminescence, BacTiterGlo, counter-screen for streptokinase expression inhibitor project, dose response (AID 1915); assay type: functional, organism-based;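 also: potency for reduction of bacterial viability or growth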
Streptokinase A = molecular target: T1, Streptokinase A (Streptococcus pyogenes serotype M1, UniProt P10520); experiment: viability-normalized secreted streptokinase activity reduction – plasminogen activation absorbance, OD405, dose response (AID 1914); assay type: functional, Streptococcus pyogenes M1 GAS;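 also: secreted streptokinase activity via plasminogen activation per viability signal from cell pellet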
T1 sequence (P10520 whole entry): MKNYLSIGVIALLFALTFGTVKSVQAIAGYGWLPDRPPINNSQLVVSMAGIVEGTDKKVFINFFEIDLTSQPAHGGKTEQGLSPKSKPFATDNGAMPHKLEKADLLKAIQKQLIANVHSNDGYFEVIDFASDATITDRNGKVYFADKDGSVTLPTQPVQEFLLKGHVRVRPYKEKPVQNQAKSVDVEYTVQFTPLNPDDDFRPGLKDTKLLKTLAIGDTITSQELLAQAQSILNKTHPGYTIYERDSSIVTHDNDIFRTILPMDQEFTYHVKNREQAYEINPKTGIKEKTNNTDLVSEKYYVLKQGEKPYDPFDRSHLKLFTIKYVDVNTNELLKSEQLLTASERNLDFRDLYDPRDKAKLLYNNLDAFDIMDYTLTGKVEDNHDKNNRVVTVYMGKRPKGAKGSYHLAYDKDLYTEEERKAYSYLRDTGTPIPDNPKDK

[3] = system: Streptococcus sp. 'group A'; experiment: Streptococcus pyogenes SK(-)GAS viability under kanamycin – luminescence, BacTiterGlo, confirmation, counter-screen for streptokinase expression inhibitor project, dose response (AID 1900); assay type: functional, organism-based
[4] = molecular target: T2, Calpain-2 catalytic subunit (Sus scrofa, UniProt P43367); experiment: m-calpain protease blockers, concentration series – biochemical, fluorogenic peptide substrate, dose response (AID 1420); assay type: functional
T2 sequence (P43367 whole entry): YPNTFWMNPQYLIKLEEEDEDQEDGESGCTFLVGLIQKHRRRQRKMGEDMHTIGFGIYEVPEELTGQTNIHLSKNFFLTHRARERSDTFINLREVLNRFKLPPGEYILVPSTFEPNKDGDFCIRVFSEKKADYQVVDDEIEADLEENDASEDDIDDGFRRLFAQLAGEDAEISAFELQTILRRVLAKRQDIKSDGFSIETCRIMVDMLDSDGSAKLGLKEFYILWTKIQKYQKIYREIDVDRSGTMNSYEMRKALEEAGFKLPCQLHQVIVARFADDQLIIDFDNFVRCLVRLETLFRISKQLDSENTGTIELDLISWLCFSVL

Escherichia coli = experiment: microbe, parasite or virus in culture
SUMO E1/E2 = SUMO E1/E2 (Homo sapiens, UniProt P63279+Q9UBE0+Q9UBT2); experiment: SAR analysis of SUMOylation using HTRF in an in-Vitro dose response assay. [Related pubchem assays (depositor defined):AID2006, AID2011, AID2018, AID2069, AID2658]; assay type: functional
SUMO E1/E2, sequence (Q9UBE0 whole entry, the tested form may be a part): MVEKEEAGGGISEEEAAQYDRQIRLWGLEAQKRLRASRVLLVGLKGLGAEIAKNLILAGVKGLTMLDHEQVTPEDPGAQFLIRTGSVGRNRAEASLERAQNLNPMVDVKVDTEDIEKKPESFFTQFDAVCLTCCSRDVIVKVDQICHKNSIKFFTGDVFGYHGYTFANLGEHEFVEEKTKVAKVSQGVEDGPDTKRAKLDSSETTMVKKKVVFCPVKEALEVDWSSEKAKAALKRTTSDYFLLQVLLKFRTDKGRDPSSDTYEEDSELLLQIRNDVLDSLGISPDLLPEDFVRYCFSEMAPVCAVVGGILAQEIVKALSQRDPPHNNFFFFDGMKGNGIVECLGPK
SUMO E1/E2, sequence (Q9UBT2 whole entry, the tested form may be a part): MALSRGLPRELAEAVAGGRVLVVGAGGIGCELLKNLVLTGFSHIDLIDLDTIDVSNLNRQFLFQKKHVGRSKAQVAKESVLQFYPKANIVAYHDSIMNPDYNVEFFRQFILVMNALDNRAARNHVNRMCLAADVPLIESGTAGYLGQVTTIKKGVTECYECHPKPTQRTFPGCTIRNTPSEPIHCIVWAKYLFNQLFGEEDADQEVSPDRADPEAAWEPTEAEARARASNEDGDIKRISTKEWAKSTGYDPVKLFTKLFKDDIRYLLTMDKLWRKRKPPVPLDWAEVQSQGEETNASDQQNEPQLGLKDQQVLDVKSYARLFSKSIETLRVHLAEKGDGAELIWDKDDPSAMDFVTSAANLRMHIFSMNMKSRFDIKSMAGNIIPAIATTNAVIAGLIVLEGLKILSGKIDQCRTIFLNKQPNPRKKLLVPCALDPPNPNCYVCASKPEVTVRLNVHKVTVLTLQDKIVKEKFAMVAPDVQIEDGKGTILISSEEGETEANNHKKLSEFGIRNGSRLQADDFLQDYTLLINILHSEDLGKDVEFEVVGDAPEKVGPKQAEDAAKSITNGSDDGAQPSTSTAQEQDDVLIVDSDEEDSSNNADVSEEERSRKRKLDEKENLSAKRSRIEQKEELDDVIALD
SUMO E1/E2, sequence (P63279 whole entry, the tested form may be a part): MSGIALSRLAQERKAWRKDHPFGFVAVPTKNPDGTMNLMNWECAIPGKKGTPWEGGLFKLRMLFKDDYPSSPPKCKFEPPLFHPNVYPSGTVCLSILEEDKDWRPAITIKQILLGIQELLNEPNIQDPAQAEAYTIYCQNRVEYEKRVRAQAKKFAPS

[5] = molecular target: T3, Carboxy-terminal domain RNA polymerase II polypeptide A small phosphatase 1 (Homo sapiens, UniProt Q9GZU7); experiment: CTDSP1 inhibitors, concentration-response, biochemical, absorbance readout, ultra-high-throughput screen actives (AID 540297); assay type: functional
T3 sequence (Q9GZU7 whole entry): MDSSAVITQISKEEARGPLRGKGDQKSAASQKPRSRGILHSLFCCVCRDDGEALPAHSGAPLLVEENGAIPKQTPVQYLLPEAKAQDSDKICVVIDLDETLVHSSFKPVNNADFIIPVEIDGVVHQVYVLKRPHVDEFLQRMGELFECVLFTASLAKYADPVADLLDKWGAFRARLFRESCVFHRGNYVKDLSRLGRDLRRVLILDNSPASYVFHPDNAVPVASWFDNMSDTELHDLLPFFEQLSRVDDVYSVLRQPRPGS

SUMO-activating enzyme [6] = molecular target: T4, SUMO-activating enzyme (Homo sapiens, UniProt Q9UBT2); experiment: blockers of UBC9-mediated SUMO conjugation – biochemical, AlphaScreen, SUMOylation inhibitor project, confirmation (AID 2018); assay type: functional
T4 sequence (Q9UBE0 whole entry): as the sequence (Q9UBE0 whole entry, the tested form may be a part) above
T4 sequence (Q9UBT2 whole entry): as the sequence (Q9UBT2 whole entry, the tested form may be a part) above

SUMO-activating enzyme [7] = molecular target: T4, SUMO-activating enzyme; experiment: blockers of SAE1/SAE2–UBC9 SUMO transfer – biochemical, HTRF, uHTS, primary screen (AID 2006); assay type: protein-complex assay
HEK293 [8] = experiment: cells; conditions: Homo sapiens
HEK293 [9] = experiment: cells; conditions: Homo sapiens; remark: listed apart in the source
Protein RecA = molecular target: T5, Protein RecA (Mycobacterium tuberculosis, UniProt P9WHJ3); experiment: Fluorescence Cell-Free Homogeneous Dose Retest to Identify Inhibitors of RecA-Intein Splicing Activity. [Related pubchem assays (depositor defined):AID2097, AID2223, AID489010, AID492950]; assay type: functional
T5 sequence (P9WHJ3 whole entry): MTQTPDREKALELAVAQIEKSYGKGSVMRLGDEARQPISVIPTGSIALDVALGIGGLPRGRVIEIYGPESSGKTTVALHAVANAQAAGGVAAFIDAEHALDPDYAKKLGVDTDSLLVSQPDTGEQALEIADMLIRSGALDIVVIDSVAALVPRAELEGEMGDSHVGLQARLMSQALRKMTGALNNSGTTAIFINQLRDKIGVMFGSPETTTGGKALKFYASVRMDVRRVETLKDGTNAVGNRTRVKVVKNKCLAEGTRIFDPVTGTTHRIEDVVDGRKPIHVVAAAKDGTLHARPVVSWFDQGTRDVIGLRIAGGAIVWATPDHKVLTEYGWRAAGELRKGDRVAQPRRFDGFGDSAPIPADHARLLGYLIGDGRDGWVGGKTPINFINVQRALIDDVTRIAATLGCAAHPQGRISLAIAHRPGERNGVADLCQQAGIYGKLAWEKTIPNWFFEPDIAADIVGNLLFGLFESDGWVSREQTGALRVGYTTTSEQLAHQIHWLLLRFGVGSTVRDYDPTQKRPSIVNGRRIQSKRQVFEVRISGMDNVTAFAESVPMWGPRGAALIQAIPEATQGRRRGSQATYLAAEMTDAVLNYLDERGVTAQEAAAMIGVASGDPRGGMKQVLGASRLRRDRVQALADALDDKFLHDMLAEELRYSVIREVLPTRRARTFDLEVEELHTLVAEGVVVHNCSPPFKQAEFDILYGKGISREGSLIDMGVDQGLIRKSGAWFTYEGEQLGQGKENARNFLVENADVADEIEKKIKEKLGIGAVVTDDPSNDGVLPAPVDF

[10] = molecular target: T6, Replicative DNA helicase DnaB (Mycobacterium tuberculosis, UniProt P9WMR3); experiment: DnaB intein splicing inhibitors, dose response, biochemical, cell-free fluorescence (AID 449749); assay type: functional
T6 sequence (P9WMR3 whole entry): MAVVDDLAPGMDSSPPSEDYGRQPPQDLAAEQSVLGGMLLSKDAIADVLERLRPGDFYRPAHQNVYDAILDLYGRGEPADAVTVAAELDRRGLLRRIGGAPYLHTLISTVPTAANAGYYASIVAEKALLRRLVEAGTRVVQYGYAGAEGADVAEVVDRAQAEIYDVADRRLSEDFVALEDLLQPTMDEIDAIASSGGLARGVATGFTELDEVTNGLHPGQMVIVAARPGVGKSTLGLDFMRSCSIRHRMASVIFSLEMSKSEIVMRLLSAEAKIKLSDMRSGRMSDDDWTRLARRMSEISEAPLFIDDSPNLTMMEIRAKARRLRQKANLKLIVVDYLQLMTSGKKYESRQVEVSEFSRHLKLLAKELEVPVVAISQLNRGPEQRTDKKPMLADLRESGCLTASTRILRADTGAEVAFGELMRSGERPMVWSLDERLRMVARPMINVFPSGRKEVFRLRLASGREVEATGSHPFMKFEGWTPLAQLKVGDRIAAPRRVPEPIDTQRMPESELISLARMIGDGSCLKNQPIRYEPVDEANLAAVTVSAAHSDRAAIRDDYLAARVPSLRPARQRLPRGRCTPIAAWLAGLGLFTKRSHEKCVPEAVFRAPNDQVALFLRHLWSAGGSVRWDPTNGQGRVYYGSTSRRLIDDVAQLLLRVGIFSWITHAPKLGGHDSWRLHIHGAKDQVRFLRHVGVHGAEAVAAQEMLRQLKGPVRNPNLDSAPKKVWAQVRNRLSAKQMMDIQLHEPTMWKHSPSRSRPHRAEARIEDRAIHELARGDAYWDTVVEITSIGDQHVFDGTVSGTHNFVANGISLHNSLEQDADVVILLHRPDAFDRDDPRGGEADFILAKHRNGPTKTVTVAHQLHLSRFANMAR

Cytochrome P450 2D6 = Cytochrome P450 2D6 (Homo sapiens, UniProt P10635);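 also: CYP2D6 member of a cytochrome P450 panel assay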
Cytochrome P450 2D6, sequence (P10635 whole entry): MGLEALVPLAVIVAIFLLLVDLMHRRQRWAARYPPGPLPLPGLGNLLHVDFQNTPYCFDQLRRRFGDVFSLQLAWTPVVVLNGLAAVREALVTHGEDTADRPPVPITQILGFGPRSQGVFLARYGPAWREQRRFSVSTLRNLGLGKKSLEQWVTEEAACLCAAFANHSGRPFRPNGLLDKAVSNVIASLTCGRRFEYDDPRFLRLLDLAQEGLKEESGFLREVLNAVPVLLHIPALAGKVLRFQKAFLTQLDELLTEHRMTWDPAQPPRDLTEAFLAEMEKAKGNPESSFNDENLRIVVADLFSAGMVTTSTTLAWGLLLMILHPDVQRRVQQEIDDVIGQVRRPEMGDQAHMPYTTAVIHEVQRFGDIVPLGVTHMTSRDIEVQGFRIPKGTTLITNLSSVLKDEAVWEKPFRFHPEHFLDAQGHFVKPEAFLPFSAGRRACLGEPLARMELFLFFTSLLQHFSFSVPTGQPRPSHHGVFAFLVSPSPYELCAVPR

O=C(CN1CCN(C(c2ccccc2)c2ccccc2)CC1)NC(=O)NCc1ccco1
IC50 [1]: 0.439 µM (active) | IC50 [2]: 0.468 µM (active)

CCOC(=O)c1cnc(-n2nc(C)cc2C)nc1Nc1ccc(C)cc1
EC50 (Streptococcus): > 150 µM (not active) | IC50 [1]: 7.89 µM (active) | EC50 (Streptokinase A): > 150 µM (not active) | EC50 [3]: 3.44 µM (active) | IC50 [2]: 2.56 µM (active) | IC50 [4]: 5.74 µM (not active)

O=C(NCc1ccccc1)c1ccc(Br)o1
AC50 (Escherichia coli): 42.9 µM (active)

COc1ccccc1NC(=O)Cn1c(O)c(N=NC(=O)c2ccccc2O)c2ccccc21
IC50 (SUMO E1/E2): 71.1 µM (active) | IC50 [5]: 2.74 µM (active) | IC50 (SUMO-activating enzyme [6]): 6.52 µM (active) | IC50 (SUMO-activating enzyme [7]): 23.8 µM (active)

Cc1ccc(OCCn2cnc3c(N)ncnc32)cc1
EC50 (HEK293 [8]): > 59.6 µM (inactive) | EC50 (HEK293 [9]): > 59.6 µM (inactive)

O=C(CSc1ncnc2c1nnn2Cc1ccccc1F)NCC1CCCO1 (centres undefined)
EC50 (Protein RecA): 16.5 µM (active) | AC50 [10]: 15 µM (active) | AC50 (Escherichia coli): 58.3 µM (active)

Cc1sc2ccccc2[n+]1CCC(=O)O
AC50 (Cytochrome P450 2D6): inconclusive
